{
  "source": "patent US6172112A",
  "about": "“Retinoids and use thereof” (priority 1999, dated 2001)",
  "key": {"RARα": {"target": "T1, RARα (Homo sapiens, UniProt P10276)", "T1 sequence (P10276 1-462)": "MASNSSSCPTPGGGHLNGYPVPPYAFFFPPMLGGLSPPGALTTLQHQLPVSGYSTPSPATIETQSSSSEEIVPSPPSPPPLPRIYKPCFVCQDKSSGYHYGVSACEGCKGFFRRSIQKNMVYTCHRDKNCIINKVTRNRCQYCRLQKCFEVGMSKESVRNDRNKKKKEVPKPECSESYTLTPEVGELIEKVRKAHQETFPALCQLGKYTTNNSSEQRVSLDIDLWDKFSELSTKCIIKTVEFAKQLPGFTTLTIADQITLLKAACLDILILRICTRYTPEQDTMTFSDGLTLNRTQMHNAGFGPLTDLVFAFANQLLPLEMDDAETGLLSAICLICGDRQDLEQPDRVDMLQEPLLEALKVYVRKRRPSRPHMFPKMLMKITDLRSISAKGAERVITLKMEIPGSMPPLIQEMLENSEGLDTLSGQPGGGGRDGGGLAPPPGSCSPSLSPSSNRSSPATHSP", "details": "CV-1 cells", "quoted_text": "The antagonistic effects of UAB30 retinoids on the transcription of RARα were determined in CV-1 cells. The methods are nearly identical to those used to perform transcriptional assays. […] After 24 hours, cells were harvested and the transcriptional effects were measured relative CAT activity, after correction with β-gal activity for transfection efficiency. […] All experiments were performed in triplicate, and the data were averaged. […] These assays were performed in CV-1 cells with the RAR or RXR gene and the chloramphenicol acetyltransferase (CAT) reporter gene containing TREpal with a thymidine kinase promoter [(TREpal)2 -tk-CAT]. Twenty-four hours after transfection, cells were treated with a single dose of retinoid and the cell extracts were assayed for b-galactosidase and CAT activity. The antagonistic effects of UAB30 retinoids on the transcription of RAR-α were also determined in CV-1 cells. The methods are nearly identical to those used to perform transcriptional assays. These studies utilized the CAT reporter gene [(TREpal)2 -tk-CAT]. […] After 24 hours, cells were harvested and the transcriptional effects were measured in relative CAT activity, after correction with β-galactosidase activity for transfection efficiency. […] Experiments were performed in triplicate and the data were averaged."}, "chick skin CRABP": {"target": "T2, chick skin CRABP (Gallus gallus, UniProt A0A8V1AB82)", "T2 sequence (A0A8V1AB82 88-225)": "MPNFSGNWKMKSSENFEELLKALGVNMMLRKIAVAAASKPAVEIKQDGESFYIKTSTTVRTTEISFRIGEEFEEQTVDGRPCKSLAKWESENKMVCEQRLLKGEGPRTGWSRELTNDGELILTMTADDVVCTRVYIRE", "assay": "chick skin CRABP radioligand binding assay", "details": "[3H]-(all-E)-RA radioligand"}, "HL-60 cells": {"tested_on": "HL-60 cells", "assay": "retinoid induction of differentiation of HL-60 cells (NBT)", "type": "cell-based", "details": "Homo sapiens, HL-60, 96 h; 4-day induction of differentiation; read-out: ED50 (nM) HL-60", "protocol": "(§1) Human leukemia cell line HL-60 and NB4 were used for measuring the ability of retinoids to induce terminal differentiation. Both cell lines are predominantly promyelocytes and are induced by retinoic acid to mature to cells with many characteristics of mature granulocytes. The induction of this differentiation is the basis for assaying one of the biological activities of retinoic acid analogues. For the differentiation assay, HL-60 or NB4 cells were grown in nutrient medium with fetal bovine serum as detailed by Breitman (15).\n(§2) The percentage of cells that gained this marker was measured microscopically. The percentage of positive cells was then plotted as a function of the retinoid concentration to determine ED50 and ED30 values used in the formation of isoboles."}, "NB4 cells [1]": {"tested_on": "NB4 cells", "assay": "retinoid induction of differentiation of NB4 cells (NBT)", "type": "cell-based, Human", "details": "for EC30: read-out: ED30 NB4 cell differentiation", "protocol": "NB4 cells were obtained from Dr. Waxman after he received them from Dr. M. Lanotte. […] The cell were grown at 37° C. in a humidified atmosphere of 5% CO2 in air. Cell density was estimated on an electronic particle counter (Coulter electronic, Hialeah, Fla.) and cell viability with trypan bleu dye exclusion.\nas §1, §2"}, "mouse skin papilloma [2]": {"tested_on": "mouse skin papilloma", "details": "45.9 nmol dose", "quoted_text": "The mouse skin antipapilloma assay measured the ED50 values for retinoid tumor inhibition on the dorsal skin of mice. The inhibition of mouse skin papilloma by retinoids was performed according to a modification of the procedure developed by Verma and Boutwell (14) as reported previously by Muccio et al. (8).\nThe UAB30 retinoids were evaluated next for their activity in preventing the chemical induction of papillomas on mouse skin (14)."}, "mouse skin papilloma [3]": {"tested_on": "mouse skin papilloma", "details": "ref (8); cited from earlier work"}, "[4]": {"tested_on": "acute promyelocytic leukemia (APL)", "details": "patients with APL; cited from earlier work"}, "JMML cells": {"tested_on": "JMML cells", "assay": "inhibition of JMML spontaneous CFU-GM colony formation", "details": "Homo sapiens", "quoted_text": "Mononuclear cells were separated by density gradient centrifugation, washed, and frozen in aliquots. […] No growth factors or other exogenous stimuli were added to the cultures. UAB retinoids and retinoic acid isomers were dissolved in either 100% ethanol or DMSO. Appropriate dilutions were made, and controls using the respective ethanol or DMSO concentration were set up in parallel. Varying doses of retinoids were added only once, 24 hours after initiation of the soft agar assays, by pipetting the retinoid solution on top of the soft agar and allowing the solution to enter the agar and interact with the cells by diffusion. The cultures were incubated for 14 days at 37° C. in a humidified atmosphere with 5% CO2."}, "NB4 cells [5]": {"tested_on": "NB4 cells", "details": "alone; previously shown by Breitman and coworkers; cited from earlier work"}},
  "note": "Entries after “also recorded” stand apart in the source; their conditions may differ. Like-named read-outs stand apart in the source and are kept apart here.",
  "data": [
    {"compound": "CCCCCCCOc1cc2c(cc1/C(C)=C/c1ccc(C(=O)O)cc1)C(C)(C)CCS2(=O)=O", "note": "[Ro-41-5253]", "values": [
      {"measurement": "antagonism of (all-E)-RA induced RARα transcription", "setting": "RARα", "value": "two-fold more active; also recorded: exhibited antagonism at each concentration of (all-E)-RA"}
    ]},
    {"compound": "CC1=C(/C=C/C(C)=C/C=C/C(C)=C/C(=O)O)C(C)(C)CCC1", "note": "[(all-E)-RA, all-trans-retinoic acid, reference compound]", "values": [
      {"measurement": "IC50", "setting": "chick skin CRABP", "value": 600, "unit": "nM"},
      {"measurement": "EC50", "setting": "HL-60 cells", "value": 120, "unit": "nM"},
      {"measurement": "EC50", "setting": "NB4 cells [1]; Homo sapiens, NB-4, 96 h, 4-day induction of differentiation, read-out: ED50 (nM) NB4", "value": 610, "unit": "nM"},
      {"measurement": "EC30", "setting": "NB4 cells [1]; in combination with 9-cis-UAB30 (1:10), day 3", "value": 50, "unit": "nM"},
      {"measurement": "EC30", "setting": "NB4 cells [1]; in combination with all-trans-UAB30 (1:10)", "value": 2800, "unit": "nM"},
      {"measurement": "EC30", "setting": "NB4 cells [1]; retinoid alone, 3 days", "value": 810, "unit": "nM"},
      {"measurement": "prevention of papilloma (tumor) formation", "setting": "mouse skin papilloma [2]", "value": 95, "unit": "%"},
      {"measurement": "ED50 skin antipapilloma assay", "setting": "mouse skin papilloma [3]", "value": 3.0, "unit": "nmol"},
      {"measurement": "complete remission rate", "setting": "[4]", "value": 90, "unit": "%"},
      {"measurement": "inhibition at 0.1 µM", "setting": "JMML cells; read-out: normalized percent inhibition of CFU-GM colony growth, patient J43 (%), 10^-7 M", "value": 74, "unit": "%"},
      {"measurement": "inhibition at 0.1 µM", "setting": "JMML cells; read-out: normalized percent inhibition of CFU-GM colony growth, patient J83 (%), 10^-7 M", "value": 88, "unit": "%"},
      {"measurement": "inhibition at 0.01 µM", "setting": "JMML cells; read-out: normalized percent inhibition of CFU-GM colony growth, patient J84 (%), 10^-8 M", "value": 33, "unit": "%"},
      {"measurement": "inhibition at 1 µM", "setting": "JMML cells; read-out: percent inhibition of CFU-GM colony growth (not normalized), 10^-6 M, J43 patient cells", "value": 85, "unit": "%"},
      {"measurement": "inhibition at 1 µM", "setting": "JMML cells; read-out: percent inhibition of CFU-GM colony growth (not normalized), 10^-6 M, J83 patient cells", "value": 78, "unit": "%"},
      {"measurement": "inhibition at 1 µM", "setting": "JMML cells; read-out: percent inhibition of CFU-GM colony growth (not normalized), 10^-6 M, J84 patient cells", "value": 61, "unit": "%"}
    ]},
    {"compound": "CC1=C(/C=C/C(C)=C/C=C/C(C)=C/C(=O)Nc2ccc(O)cc2)C(C)(C)CCC1", "note": "[4-HPR, 4-hydroxyphenylretinamide]", "values": [
      {"measurement": "NB4 cell differentiation", "setting": "NB4 cells [5]", "value": "does not induce NB4 cells to differentiate"}
    ]}
  ]
}
